From patent US7635572B2, “Methods for conducting assays for enzyme activity on protein microarrays” (Life Technologies Corporation, priority 2004, dated 2009)
Where two headings read alike, the source gives them in different places.

Legend:
Assay in all cases: Further analysis of a plurality of inhibitors and a plurality of kinases on microarray (Example IX, Table 5);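 further: inhibition of each kinase by the inhibitors is given as a qualitative level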;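 on Inhibition level, FGFR2: level 0 none or unclear then 1 little or marginal then 2 substantial inhibition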;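 on Inhibition level, PRKCI: level 0 none or unclear Level 1 marginal Level 2 substantial inhibition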;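 on Inhibition level, TBK1: level 0 no or unclear inhibition to Level 2 substantial inhibition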;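 on Inhibition level, TGFBR2: level 0 none or unclear then 1 little or marginal then 2 substantial inhibition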
Type in all cases: biochemical
[1] = biological target: T1, plurality of kinases (Table 5) (Homo sapiens, UniProt P41743); settings: plate A2
T1 sequence (P41743 1-596): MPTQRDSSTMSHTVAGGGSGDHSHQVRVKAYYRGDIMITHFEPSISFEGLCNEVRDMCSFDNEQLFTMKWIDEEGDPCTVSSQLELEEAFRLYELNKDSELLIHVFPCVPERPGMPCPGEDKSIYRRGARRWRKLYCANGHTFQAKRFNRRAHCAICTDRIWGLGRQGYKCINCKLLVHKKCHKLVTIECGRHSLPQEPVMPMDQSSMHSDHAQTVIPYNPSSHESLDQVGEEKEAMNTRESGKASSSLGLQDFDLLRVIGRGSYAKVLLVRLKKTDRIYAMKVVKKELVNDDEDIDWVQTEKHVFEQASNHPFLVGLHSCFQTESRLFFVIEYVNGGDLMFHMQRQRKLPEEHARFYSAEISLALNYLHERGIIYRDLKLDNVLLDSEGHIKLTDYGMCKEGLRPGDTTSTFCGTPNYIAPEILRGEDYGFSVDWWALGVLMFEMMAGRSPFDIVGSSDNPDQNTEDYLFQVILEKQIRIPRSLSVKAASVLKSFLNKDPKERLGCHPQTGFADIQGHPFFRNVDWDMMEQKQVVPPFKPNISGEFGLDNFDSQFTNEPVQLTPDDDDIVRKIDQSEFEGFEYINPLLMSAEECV

[2] = biological target: plurality of kinases (Table 5) (Homo sapiens, UniProt P07948)
[3] = biological target: plurality of kinases (Table 5) (Homo sapiens, UniProt Q7KZI7); settings: plate C4; inhibitor 100 uM
Sequence of plurality of kinases (Table 5) (Homo sapiens, UniProt Q7KZI7) (Q7KZI7 whole entry): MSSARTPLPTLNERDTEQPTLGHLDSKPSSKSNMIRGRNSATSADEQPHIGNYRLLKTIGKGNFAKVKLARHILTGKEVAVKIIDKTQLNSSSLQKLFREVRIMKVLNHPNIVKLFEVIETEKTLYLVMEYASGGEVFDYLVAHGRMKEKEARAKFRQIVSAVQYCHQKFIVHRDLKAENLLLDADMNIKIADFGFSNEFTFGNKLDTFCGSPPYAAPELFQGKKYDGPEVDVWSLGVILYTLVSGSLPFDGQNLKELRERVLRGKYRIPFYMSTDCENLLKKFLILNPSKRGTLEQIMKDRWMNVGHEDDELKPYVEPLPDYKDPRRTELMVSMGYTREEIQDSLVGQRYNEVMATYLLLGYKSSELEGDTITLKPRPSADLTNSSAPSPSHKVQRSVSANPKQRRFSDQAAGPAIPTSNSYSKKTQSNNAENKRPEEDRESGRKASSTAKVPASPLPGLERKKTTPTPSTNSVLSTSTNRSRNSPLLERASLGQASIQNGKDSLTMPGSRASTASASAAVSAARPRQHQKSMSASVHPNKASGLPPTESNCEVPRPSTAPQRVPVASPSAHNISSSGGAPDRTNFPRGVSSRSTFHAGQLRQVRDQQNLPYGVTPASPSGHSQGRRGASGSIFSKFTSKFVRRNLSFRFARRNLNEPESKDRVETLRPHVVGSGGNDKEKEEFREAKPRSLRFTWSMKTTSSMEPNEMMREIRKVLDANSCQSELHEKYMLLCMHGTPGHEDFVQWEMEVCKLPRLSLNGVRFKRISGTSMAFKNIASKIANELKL

[4] = biological target: plurality of kinases (Table 5) (Homo sapiens, UniProt P06239)
Sequence of plurality of kinases (Table 5) (Homo sapiens, UniProt P06239) (P06239 whole entry): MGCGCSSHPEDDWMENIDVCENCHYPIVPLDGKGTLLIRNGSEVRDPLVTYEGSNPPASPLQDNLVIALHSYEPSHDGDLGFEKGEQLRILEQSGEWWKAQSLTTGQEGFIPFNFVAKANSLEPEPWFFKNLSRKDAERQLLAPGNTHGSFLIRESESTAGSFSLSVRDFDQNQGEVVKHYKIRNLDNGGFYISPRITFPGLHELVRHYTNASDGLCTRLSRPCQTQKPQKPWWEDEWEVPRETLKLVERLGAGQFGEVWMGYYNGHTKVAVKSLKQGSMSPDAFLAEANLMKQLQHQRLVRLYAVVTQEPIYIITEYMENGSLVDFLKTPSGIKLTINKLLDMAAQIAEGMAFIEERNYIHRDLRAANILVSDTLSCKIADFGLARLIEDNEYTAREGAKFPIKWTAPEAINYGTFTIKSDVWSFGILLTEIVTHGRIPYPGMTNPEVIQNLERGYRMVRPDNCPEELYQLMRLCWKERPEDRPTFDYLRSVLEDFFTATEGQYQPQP

[5] = biological target: plurality of kinases (Table 5) (Homo sapiens, UniProt P21802)
Sequence of plurality of kinases (Table 5) (Homo sapiens, UniProt P21802) (P21802 22-821): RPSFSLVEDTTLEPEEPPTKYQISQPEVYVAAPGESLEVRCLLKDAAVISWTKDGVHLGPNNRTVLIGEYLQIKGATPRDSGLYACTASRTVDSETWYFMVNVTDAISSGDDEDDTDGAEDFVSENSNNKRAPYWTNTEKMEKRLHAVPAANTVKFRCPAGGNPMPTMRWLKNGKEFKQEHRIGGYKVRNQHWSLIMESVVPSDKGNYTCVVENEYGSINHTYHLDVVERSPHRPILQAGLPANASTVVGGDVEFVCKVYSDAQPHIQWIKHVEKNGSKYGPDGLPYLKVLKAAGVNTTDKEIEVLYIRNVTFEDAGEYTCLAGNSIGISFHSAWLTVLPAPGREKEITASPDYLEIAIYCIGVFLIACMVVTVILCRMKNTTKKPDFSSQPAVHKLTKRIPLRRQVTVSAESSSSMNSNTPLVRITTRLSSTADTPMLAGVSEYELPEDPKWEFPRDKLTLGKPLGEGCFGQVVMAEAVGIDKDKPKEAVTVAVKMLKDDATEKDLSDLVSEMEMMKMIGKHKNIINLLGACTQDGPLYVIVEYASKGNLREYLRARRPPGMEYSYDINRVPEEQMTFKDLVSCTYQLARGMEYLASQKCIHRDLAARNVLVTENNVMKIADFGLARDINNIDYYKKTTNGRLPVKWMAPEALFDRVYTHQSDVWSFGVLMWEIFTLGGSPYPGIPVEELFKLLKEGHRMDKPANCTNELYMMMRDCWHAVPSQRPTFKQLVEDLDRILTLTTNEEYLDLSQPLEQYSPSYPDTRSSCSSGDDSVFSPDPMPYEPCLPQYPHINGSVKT

[6] = biological target: plurality of kinases (Table 5) (Homo sapiens, UniProt Q00536); settings: plate A3; inhibitor 100 uM
Sequence of plurality of kinases (Table 5) (Homo sapiens, UniProt Q00536) (Q00536 whole entry): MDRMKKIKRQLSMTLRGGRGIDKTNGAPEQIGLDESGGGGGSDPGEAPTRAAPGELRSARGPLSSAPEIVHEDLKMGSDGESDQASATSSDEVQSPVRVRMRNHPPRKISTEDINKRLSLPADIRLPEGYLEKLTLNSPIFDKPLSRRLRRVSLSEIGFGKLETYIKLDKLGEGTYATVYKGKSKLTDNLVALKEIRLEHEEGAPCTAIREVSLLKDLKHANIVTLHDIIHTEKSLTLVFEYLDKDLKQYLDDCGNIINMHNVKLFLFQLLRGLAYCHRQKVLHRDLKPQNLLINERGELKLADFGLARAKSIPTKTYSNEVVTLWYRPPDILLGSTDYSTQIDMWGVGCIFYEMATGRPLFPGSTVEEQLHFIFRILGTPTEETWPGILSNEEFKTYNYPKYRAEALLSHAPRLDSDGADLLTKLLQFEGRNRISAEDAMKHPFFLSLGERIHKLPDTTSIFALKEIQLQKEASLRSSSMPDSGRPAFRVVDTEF

[7] = biological target: T2, plurality of kinases (Table 5) (Homo sapiens, UniProt Q9UHD2); settings: plate G1; inhibitor 100 uM
T2 sequence (Q9UHD2 1-729): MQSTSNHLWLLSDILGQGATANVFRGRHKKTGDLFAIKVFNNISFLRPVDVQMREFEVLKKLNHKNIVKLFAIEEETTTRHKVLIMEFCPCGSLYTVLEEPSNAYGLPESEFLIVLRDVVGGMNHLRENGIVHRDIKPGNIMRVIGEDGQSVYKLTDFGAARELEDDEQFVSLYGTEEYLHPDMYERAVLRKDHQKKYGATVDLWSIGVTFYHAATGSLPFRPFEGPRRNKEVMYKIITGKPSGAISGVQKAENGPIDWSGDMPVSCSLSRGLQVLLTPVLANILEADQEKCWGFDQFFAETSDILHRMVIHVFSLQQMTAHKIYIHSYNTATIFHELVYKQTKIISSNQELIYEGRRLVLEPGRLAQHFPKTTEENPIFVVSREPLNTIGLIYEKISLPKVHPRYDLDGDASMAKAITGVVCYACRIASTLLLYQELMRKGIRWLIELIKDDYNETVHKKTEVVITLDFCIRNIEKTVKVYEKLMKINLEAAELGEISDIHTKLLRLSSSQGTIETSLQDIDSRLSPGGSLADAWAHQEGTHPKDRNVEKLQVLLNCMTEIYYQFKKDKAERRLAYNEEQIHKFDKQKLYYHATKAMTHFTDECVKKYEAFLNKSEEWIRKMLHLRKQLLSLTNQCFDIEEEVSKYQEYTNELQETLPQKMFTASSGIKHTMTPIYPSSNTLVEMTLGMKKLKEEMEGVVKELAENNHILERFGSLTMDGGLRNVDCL

[8] = biological target: plurality of kinases (Table 5) (Homo sapiens, UniProt O75914); settings: plate D4
Sequence of plurality of kinases (Table 5) (Homo sapiens, UniProt O75914) (O75914 whole entry): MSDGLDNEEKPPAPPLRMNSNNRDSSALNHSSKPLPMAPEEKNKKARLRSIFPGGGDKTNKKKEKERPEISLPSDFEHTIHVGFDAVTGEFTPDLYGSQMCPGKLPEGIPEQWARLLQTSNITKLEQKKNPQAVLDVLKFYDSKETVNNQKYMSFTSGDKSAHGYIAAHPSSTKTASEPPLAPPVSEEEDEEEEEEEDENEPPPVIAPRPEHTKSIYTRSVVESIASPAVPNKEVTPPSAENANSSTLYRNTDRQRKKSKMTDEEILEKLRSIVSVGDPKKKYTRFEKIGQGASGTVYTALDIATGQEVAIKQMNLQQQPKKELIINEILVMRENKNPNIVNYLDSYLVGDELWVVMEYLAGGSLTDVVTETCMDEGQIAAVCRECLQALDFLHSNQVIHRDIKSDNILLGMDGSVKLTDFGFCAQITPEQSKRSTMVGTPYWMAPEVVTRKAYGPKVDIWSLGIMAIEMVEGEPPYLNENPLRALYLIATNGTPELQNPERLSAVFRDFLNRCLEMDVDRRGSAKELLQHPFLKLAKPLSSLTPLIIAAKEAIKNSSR

[9] = biological target: T3, plurality of kinases (Table 5) (Homo sapiens, UniProt Q99759); settings: plate A1
T3 sequence (Q99759 1-626): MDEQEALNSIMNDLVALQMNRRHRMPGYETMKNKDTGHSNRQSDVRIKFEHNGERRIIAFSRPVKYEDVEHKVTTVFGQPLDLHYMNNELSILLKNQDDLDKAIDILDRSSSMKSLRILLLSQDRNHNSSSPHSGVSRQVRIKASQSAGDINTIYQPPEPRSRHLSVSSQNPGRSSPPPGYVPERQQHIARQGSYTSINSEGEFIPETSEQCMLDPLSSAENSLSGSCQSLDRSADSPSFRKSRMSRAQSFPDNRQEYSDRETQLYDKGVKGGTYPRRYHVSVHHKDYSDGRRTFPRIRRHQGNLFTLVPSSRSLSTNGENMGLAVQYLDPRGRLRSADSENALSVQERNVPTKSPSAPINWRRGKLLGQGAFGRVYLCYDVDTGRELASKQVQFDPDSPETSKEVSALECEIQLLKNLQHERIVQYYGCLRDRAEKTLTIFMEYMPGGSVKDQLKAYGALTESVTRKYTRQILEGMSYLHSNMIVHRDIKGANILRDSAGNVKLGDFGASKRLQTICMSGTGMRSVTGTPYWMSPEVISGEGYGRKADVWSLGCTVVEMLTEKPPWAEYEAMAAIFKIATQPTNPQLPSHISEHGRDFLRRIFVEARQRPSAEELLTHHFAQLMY

[10] = biological target: plurality of kinases (Table 5) (Homo sapiens, UniProt P37173); settings: plate C7
Sequence of plurality of kinases (Table 5) (Homo sapiens, UniProt P37173) (P37173 23-567): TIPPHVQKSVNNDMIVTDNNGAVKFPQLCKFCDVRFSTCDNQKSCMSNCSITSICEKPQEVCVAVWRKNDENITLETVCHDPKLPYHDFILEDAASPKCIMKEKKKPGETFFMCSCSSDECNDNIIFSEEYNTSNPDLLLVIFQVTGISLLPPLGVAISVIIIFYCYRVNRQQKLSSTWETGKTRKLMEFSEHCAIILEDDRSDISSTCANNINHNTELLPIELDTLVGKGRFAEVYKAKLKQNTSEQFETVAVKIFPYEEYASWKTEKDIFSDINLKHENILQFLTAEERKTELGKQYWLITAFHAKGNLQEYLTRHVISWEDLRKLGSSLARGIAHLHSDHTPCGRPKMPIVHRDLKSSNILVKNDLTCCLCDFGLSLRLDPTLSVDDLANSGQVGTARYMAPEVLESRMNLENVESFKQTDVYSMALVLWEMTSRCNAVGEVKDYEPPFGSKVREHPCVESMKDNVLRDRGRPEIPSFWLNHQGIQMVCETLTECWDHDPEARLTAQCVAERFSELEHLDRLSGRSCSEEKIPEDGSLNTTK

[11] = biological target: plurality of kinases (Table 5) (Homo sapiens, UniProt P00519); settings: plate B6
Sequence of plurality of kinases (Table 5) (Homo sapiens, UniProt P00519) (P00519 whole entry): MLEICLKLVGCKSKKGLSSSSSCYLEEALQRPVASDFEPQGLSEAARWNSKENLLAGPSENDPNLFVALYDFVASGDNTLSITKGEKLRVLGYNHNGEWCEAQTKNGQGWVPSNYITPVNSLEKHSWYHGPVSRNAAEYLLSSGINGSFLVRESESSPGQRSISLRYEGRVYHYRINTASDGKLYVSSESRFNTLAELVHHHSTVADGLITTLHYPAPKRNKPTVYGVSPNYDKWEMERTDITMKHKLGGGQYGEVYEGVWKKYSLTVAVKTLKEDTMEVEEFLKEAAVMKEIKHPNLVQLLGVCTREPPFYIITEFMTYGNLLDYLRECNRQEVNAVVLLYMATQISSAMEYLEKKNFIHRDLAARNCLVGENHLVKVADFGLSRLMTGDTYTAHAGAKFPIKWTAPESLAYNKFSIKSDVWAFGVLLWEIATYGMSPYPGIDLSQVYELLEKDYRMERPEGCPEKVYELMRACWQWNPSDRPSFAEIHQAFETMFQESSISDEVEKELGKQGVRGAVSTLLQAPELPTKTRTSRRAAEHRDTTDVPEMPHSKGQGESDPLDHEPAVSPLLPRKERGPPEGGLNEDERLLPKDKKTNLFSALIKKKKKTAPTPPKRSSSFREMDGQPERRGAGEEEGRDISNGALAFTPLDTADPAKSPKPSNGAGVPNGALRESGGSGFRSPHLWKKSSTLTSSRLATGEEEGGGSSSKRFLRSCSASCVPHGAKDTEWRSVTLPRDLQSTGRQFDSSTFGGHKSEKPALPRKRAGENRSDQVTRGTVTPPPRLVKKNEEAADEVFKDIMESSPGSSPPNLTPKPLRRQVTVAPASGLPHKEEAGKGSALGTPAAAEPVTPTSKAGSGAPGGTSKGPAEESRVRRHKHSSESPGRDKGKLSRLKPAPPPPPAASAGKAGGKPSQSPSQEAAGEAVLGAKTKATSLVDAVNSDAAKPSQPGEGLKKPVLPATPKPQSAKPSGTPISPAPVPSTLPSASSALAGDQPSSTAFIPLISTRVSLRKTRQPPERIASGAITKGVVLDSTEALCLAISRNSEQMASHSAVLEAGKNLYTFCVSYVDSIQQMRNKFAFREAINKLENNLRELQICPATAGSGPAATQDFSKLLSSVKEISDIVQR

[12] = biological target: plurality of kinases (Table 5) (Homo sapiens, UniProt P16591); settings: plate H5; inhibitor 100 uM
[13] = plate A5, Domain 0, inhibitor 100 uM

Inhibition level, MARK2 [3] | Inhibition level, LCK ([4]; plate A6, inhibitor 100 uM) | Structure (SMILES) | Inhibition level, PRKCI ([1]; inhibitor 100 uM) | Inhibition level, LYN [2, 13] | Inhibition level, FGFR2 ([5]; plate B4, inhibitor 100 uM) | Inhibition level, FGFR2 ([5]; plate G8, inhibitor 100 uM) | Inhibition level, PCTK1 [6] | Inhibition level, TBK1 [7] | Inhibition level, PAK3 ([8]; inhibitor 100 uM) | Inhibition level, MAP3K3 ([9]; inhibitor 100 uM) | Inhibition level, TGFBR2 ([10]; inhibitor 100 uM) | Inhibition level, ABL1 ([11]; inhibitor 100 uM) | Inhibition level, FER [12] | also measured
2 | 2 | O=c1c(-c2ccc(O)cc2)coc2cc(O)cc(O)c12 [Genistein] | 2 | 2 | 2 | 2 | 1 | 2 | 2 | 2 | 2 | 0 | 2 | Inhibition level, PRKCI ([1]; Genistein <3.7 mM): 0; Inhibition level, LYN ([2]; plate A5, Domain 0, Genistein <3.7 mM): 2; Inhibition level, LCK ([4]; plate A6, Genistein <3.7 mM): 0; Inhibition level, FGFR2 ([5]; plate B4, Genistein, conc. not given): 1; Inhibition level, FGFR2 ([5]; plate G8, Genistein <3.7 mM): 0; Inhibition level, PAK3 ([8]; Genistein, conc. not given): 0; Inhibition level, MAP3K3 ([9]; Genistein <3.7 mM): 2; Inhibition level, TGFBR2 ([10]; Genistein <3.7 mM): 1; Inhibition level, ABL1 ([11]; Genistein, conc. not given): 0
2 | 2 | O=S(=O)(NCCNC/C=C/c1ccc(Br)cc1)c1cccc2cnccc12 [H-89] | 2 | 2 | 2 | 2 | 2 | 2 | 2 | 2 | 2 | 0 | 2 | 
2 |  | CC(C)(C)n1nc(-c2ccc(Cl)cc2)c2c(N)ncnc21 [PP2] | 1 | 2 | 2 | 2 | 1 | 1 | 2 | 2 | 2 |  | 2 | 
 |  | O=c1c(O)c(-c2ccc(O)c(O)c2)oc2cc(O)cc(O)c12 [Quercetin] | 0 | 2 | 0 | 0 | 0 | 0 | 2 | 0 | 0 |  | 1 | 
2 | 2 | Cn1cc(C2=C(c3cn(CCCSC(=N)N)c4ccccc34)C(=O)NC2=O)c2ccccc21 [Ro-31-8220] | 0 | 2 | 2 | 2 | 0 | 2 | 2 | 0 | 2 | 2 | 2 | Inhibition level, PRKCI ([1]; Ro-31-8220 90 uM): 2; Inhibition level, LYN ([2]; plate A5, Domain 0, Ro-31-8220 90 uM): 0; Inhibition level, LCK ([4]; plate A6, Ro-31-8220 90 uM): 0; Inhibition level, FGFR2 ([5]; plate B4, Ro-31-8220, conc. not given): 0; Inhibition level, FGFR2 ([5]; plate G8, Ro-31-8220 90 uM): 2; Inhibition level, PAK3 ([8]; Ro-31-8220, conc. not given): 2; Inhibition level, MAP3K3 ([9]; Ro-31-8220 90 uM): 2; Inhibition level, TGFBR2 ([10]; Ro-31-8220 90 uM): 2; Inhibition level, ABL1 ([11]; Ro-31-8220, conc. not given): 0
 |  | CN[C@@H]1C[C@H]2O[C@@](C)([C@@H]1OC)n1c3ccccc3c3c4c(c5c6ccccc6n2c5c31)C(=O)NC4 [Staurosporine] |  |  |  |  |  |  |  |  |  |  |  | Inhibition level, LYN [2]: 0; Inhibition level, MAP3K3 ([9]; Staurosporine 21.5 uM): 2; Inhibition level, TGFBR2 ([10]; Staurosporine 21.5 uM): 2

Structure (SMILES) | Inhibition level, MARK2 [3] | Inhibition level, LCK ([4]; plate A6, inhibitor 100 uM) | Inhibition level, PRKCI ([1]; inhibitor 100 uM) | Inhibition level, LYN [2, 13] | Inhibition level, FGFR2 ([5]; plate B4, inhibitor 100 uM) | Inhibition level, FGFR2 ([5]; plate G8, inhibitor 100 uM) | Inhibition level, PCTK1 [6] | Inhibition level, TBK1 [7] | Inhibition level, PAK3 ([8]; inhibitor 100 uM) | Inhibition level, MAP3K3 ([9]; inhibitor 100 uM) | Inhibition level, TGFBR2 ([10]; inhibitor 100 uM) | Inhibition level, ABL1 ([11]; inhibitor 100 uM) | Inhibition level, FER [12] | also measured
N#C/C(=C/c1ccc(O)c(O)c1)C(=O)NCc1ccccc1 [AG 490] | 2 | 2 | 2 | 2 | 2 | 2 | 0 | 2 | 1 | 2 | 2 | 0 | 2 | 
COc1cc2ncnc(Nc3cccc(Cl)c3)c2cc1OC [AG 1478] | 2 |  | 0 | 2 | 2 | 2 | 0 | 2 | 2 | 2 | 2 | 1 | 1 | Inhibition level, LCK [4]: 2
CC(=O)c1c(O)c(C)c(O)c(Cc2c(O)c3c(c(C(=O)/C=C/c4ccccc4)c2O)OC(C)(C)C=C3)c1O [Rottlerin (Mallotoxin)] | 2 | 2 | 2 | 2 | 0 | 2 | 0 | 1 | 0 | 2 | 2 | 0 | 2 | 
